Three molecules from ChEMBL document CHEMBL1250462, “Affinity of aporphines for the human 5-HT2A receptor: insights from homology modeling and molecular docking studies” (Bioorg Med Chem, 2010) can be followed below.

Chain of 5-hydroxytryptamine receptor 2A (Homo sapiens) (P28223 whole entry): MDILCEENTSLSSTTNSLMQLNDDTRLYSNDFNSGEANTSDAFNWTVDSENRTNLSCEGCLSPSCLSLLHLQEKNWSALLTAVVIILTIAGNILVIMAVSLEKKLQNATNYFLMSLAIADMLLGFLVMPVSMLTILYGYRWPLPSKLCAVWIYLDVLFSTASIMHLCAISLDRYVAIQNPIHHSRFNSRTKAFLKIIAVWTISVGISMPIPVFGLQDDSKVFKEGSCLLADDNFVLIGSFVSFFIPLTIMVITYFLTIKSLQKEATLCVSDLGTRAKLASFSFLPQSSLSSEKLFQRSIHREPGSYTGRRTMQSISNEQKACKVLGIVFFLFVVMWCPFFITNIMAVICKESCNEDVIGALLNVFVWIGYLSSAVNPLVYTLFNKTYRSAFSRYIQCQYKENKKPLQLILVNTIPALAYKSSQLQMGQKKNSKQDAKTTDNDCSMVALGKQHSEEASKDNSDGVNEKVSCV

The test has as its target 5-hydroxytryptamine receptor 2A (Homo sapiens) (UniProt P28223).
Description: Binding affinity to 5HT2A
`COc1cc2c3c(c1OC)-c1cc4c(cc1CC3N(C(C)=O)CC2)OCO4` (stereo not drawn) registered a Ke above 10 µM.

`COc1cc2c3c(c1OC)-c1cc4c(cc1CC3N(S(C)(=O)=O)CC2)OCO4` (stereo not drawn): the Ke is above 10 µM.

As for `COc1cc2c3c(c1OCc1ccccc1)-c1cc4c(cc1CC3N(C)CC2)OCO4` (stereo not drawn), the Ke came out at 4.6 µM.
